Assay results reported in patent US20260344673A1, “A SOLID FORM FOR PREPARATION OF AN AQUEOUS DISPERSION, AQUEOUS DISPERSION, STABLE CONCENTRATE, COMBINED AQUEOUS DISPERSION, AND USES THEREOF” (priority 2022, published 2026).

How the values were obtained:
seeds = assay: Seed treatment test: germination rate, infected seeds, shoot and root biomass (all seed species); assay type: in vivo; conditions: applied alone and in mixtures with seed treatment fungicides
Protocol: The method of treating seeds according to the embodiment of the present inventions can be characterised in that in the treatment seed with 30 g checked product with and without combination with fungicidal seed treatment products per 100 kg of seed are employed. The results were assessed due to EPPO: PP1/152(4), PP 1/19 (5), PP 1/135(4) and PP1/181(4) Standards.
Seed treatment test was conducted according to International Rules for Seed Testing 2018 (ISTA) under laboratory conditions using sterile paper as a growing media. The tests were continued for 14 days. As a result, the germination rate and the number of infected seeds were calculated. The biomass (shoots and roots) was collected and measured accordingly.

Monilinia fructigena = assay: Kirby-Bauer disk diffusion test, Monilinia fructigena
Protocol: (§1) The performance of the embodiments of the present inventions and their mixtures enriched with millbase (MFA) was analysed against the appropriate reference substance, i.e., a commercial product containing the analogue active substance with the same concentration. The prepared solutions were applied on the paper antibiograms. Then the soaked antibiograms were placed on the Petri Dishes (dish diameter 90 mm) with the growth medium for fungal pathogens V8. Composition of V8: agar, calcium carbonate and multi-vegetable juice. 3 fragments of mycelium of the tested pathogen (5×5 mm) were transplanted onto the prepared medium. As a result, the zones where the fungal growth was inhibited have been measured and compared respectively with the control sample and the analogue active substance sample.
(§2) Assessment was carried out by determining the infested area of the Petri dish in %. These percentages have been converted into efficacy (W) according to Abbot's formula as follows: W=(1−α/β)×100 • where: • α—corresponds to the mycelium/bacterial growth of each tested sample [%], • β—corresponds to the mycelium/bacterial growth in control sample [%].
(§3) In order to estimate if the combined action effect with the commercial fungicide, the W parameter of the mixture was compared with W parameter for particular commercial fungicide solo. Where W=0 the efficacy of the control sample (whole Petri dish covered with mycelium), and W=100 is when no mycelium growth observed.

Zymoseptoria tritici = assay: Field trial winter wheat, efficacy against Zymoseptoria tritici; assay type: in vivo; conditions: field conditions, tank-mix, control (no treatment) 4.68
Protocol: (§4) The rates of application (use) of the composition of the present invention (MFA) vary according to type of use, type of crop, the specific active ingredient in the combination, but is such that the active ingredient in the combination is an effective amount to provide the desired action (such as disease control). The application rate of the composition for a given set of conditions can readily be determined by trials.
(§5) Field trials were conducted in Poland according to approved EPPO guidelines: PP 1/135(4), PP 1/152(4), PP 1/181(4) (general), PP 1/1(4) (sugar beet), PP 1/28 (3), PP 1/26(4) (winter wheat), PP 1/78(4) (oilseed), PP1/263 (1), PP1/16 (3) (strawberry), PP 1/2 (5), PP 1/263 (1) (potato). The spray volumes were in line with farmers' practice, varying between 200-300 l/ha. The applications were processed as per the EPPO guideline specific for each crop.

[1] = test system: Alternaria infectoria/alternata; assay: Kirby-Bauer disk diffusion test, Alternaria infectoria/alternata
Protocol: as §1, §2, §3

[2] = test system: Colletotrichum gloeosporioides; assay: Kirby-Bauer disk diffusion test, Colletotrichum gloeosporioides; conditions: Colletotrichum gloeosporioides
Protocol: (§6) The microbiological tests were carried out by applying Kirby-Bauer Disk Diffusion Susceptibility Test Protocol for antimicrobial activity. It is based on the formation of a concentration gradient in the growth medium during the diffusion of the active substance from the antibiogram disc (Kirby-Bauer method).
as §1, §2, §3

Botrytis cinerea = assay: Kirby-Bauer disk diffusion test, Botrytis cinerea
Protocol: as §1, §2, §3

Erwinia sp. = assay: Kirby-Bauer disk diffusion test, bacterial pathogens (inhibition zones, halo effect); conditions: Nutrient Agar, tank-mixes; for Efficacy %: control 0.00; for Erwinia sp. bacterial growth: control 3.5 mm
Peronospora manshurica = assay: Field trial soya, efficacy against Peronospora manshurica; assay type: in vivo; conditions: field conditions, tank-mix, control (no treatment) 5.66
Protocol: as §4, §5

winter wheat = assay: Field trial winter wheat, plant biomass and yield parameters; assay type: in vivo; conditions: field conditions; for Bulk density: control 0.67; for The Thousand Grain Weight (TGW): control 41.90; for Yield: control 76.50; for Biomass: control 157.50
Protocol: as §5

Sclerotinia sclerotiorum [3] = assay: Field trial oilseed rape, efficacy against Sclerotinia sclerotiorum; assay type: in vivo; conditions: field conditions, tank-mix, control (no treatment) 6.28
Protocol: as §4, §5

Phoma lingam = assay: Field trial oilseed rape, efficacy against Phoma lingam; assay type: in vivo; conditions: field conditions, tank-mix, control (no treatment) 4.18
Protocol: as §4, §5

soya = assay: Field trial soya, plant biomass and yield parameters; assay type: in vivo; conditions: field conditions; for Bulk density: control 0.728; for Yield: control 37.41; for Biomass: control 190.0; for The Thousand Grain Weight (TGW): control 205.3
Protocol: as §5

Septoria nodorum (1291) = assay: Kirby-Bauer disk diffusion test, Septoria nodorum (1291)
Protocol: as §1, §2, §3

Fusarium equiseti = assay: Kirby-Bauer disk diffusion test, Fusarium equiseti
Protocol: as §1, §2, §3

Fusarium oxysporum = assay: Kirby-Bauer disk diffusion test, Fusarium oxysporum; conditions: Fusarium oxysporum
Protocol: as §6, §1, §2, §3

Septoria tritici = assay: Kirby-Bauer disk diffusion test, Septoria tritici
Protocol: as §1, §2, §3

oilseed rape = assay: Field trial oilseed rape, plant biomass and yield quality/quantity parameters; assay type: in vivo; conditions: field conditions; for The Thousand Grain Weight (TGW): Tables 31-33, control 5.64; for Bulk density: control 0.65; for Yield: control 25.49; for Biomass: control 90.00
Protocol: as §5

Sclerotinia sclerotiorum [4] = assay: Kirby-Bauer disk diffusion test, Sclerotinia sclerotiorum
Protocol: as §1, §2, §3

Colletotrichum spp. = assay: Field trial soya, efficacy against Colletotrichum spp.; assay type: in vivo; conditions: field conditions, tank-mix, control (no treatment) 4.21
Phytium ultimum = assay: Kirby-Bauer disk diffusion test, Phytium ultimum
Protocol: as §1, §2, §3

Phytophthora megasperma = assay: Kirby-Bauer disk diffusion test, Phytophthora megasperma; conditions: Phytophthora megasperma
Protocol: as §6, §1, §2, §3

Verticillium longisporum = assay: Kirby-Bauer disk diffusion test, Verticillium longisporum
Protocol: as §1, §2, §3

Phytophthora cactorum = assay: Kirby-Bauer disk diffusion test, Phytophthora cactorum; design: % mycelium growth relative to the control: concentration or dose not given beside the values
Protocol: as §1, §2, §3

Venturia inaegualis = assay: Kirby-Bauer disk diffusion test, Venturia inaequalis; conditions: Venturia inaegualis
Protocol: as §6, §1, §2, §3

[5] = test system: selected pathogens (fungi); conditions: vs commercial fungicide
spring barley [6] = conditions: compared with uninoculated plots; Montana 1981 and 1982; cited from earlier work
Cochliobolus sativus = conditions: Montana 1981 and 1982; cited from earlier work
spring barley [7] = conditions: Montana 1981 and 1982; cited from earlier work

With O=C(O)CN(CCN(CC(=O)O)CC(=O)O)CC(=O)O.[Zn+2] [zinc chelated by EDTA, zinc chelated by EDTA (ethylenediamine tetraacetic acid)] the “biomass increase (shoots and roots)” value (seeds) was “neutral to positive influence” and the germination percentage (seeds) was “neutral to positive influence”.

For COC=C(C(=O)OC)c1ccccc1Oc1cc(Oc2ccccc2C#N)ncn1 [Azoxystrobin (250)], the “% mycelium growth relative to the control” value (Monilinia fructigena; V8 medium) was 0%, the mycelium growth (Monilinia fructigena; V8 medium, control 5.4 cm) was 0 cm and the “EFFICACY W (Abbot)” value (Monilinia fructigena; control W=0, no growth W=100) was 100. The “Efficacy Zymoseptoria tritici” value (Zymoseptoria tritici) was 4.32 scale 0-10, the “% mycelium growth relative to the control” value ([1]; V8 medium) was 40% and the mycelium growth ([1]; V8 medium, control 8.6 cm) was 3.4 cm. The “EFFICACY W (Abbot)” value ([1]; control W=0, no growth W=100) was 60, the “% mycelium growth relative to the control” value ([2]; V8 medium) was 50% and the mycelium growth ([2]; V8 medium, control 5.4 cm) was 2.7 cm. The “EFFICACY W (Abbot)” value ([2]; control W=0, no growth W=100) was 50, the “% mycelium growth relative to the control” value (Botrytis cinerea; V8 medium) was 100% and the mycelium growth (Botrytis cinerea; V8 medium, control 8.6 cm) was 8.6 cm. For the same molecule, the “EFFICACY W (Abbot)” value (Botrytis cinerea; control W=0, no growth W=100) was 0, the Efficacy % (Erwinia sp.) was 22.86% and the “Erwinia sp. bacterial growth” value (Erwinia sp.) was 2.7 mm. For the same molecule, the “Efficacy Peronospora manshurica” value (Peronospora manshurica) was 3.32 scale 0-10, the Bulk density (winter wheat) was 0.63 kg/L and the “The Thousand Grain Weight (TGW)” value (winter wheat) was 43.60 g. The Yield (winter wheat) was 66.33 dt/ha, the Biomass (winter wheat) was 147.50 dt/ha and the “Efficacy Sclerotinia sclerotiorum” value (Sclerotinia sclerotiorum [3]) was 4.32 scale 0-10. For the same molecule, the “Efficacy Phoma lingam” value (Phoma lingam) was 3.42 scale 0-10, the Bulk density (soya) was 0.627 kg/L and the Yield (soya) was 38.26 dt/ha. The Biomass (soya) was 156.7 dt/ha, the “The Thousand Grain Weight (TGW)” value (soya) was 204.0 g and the “% mycelium growth relative to the control” value (Septoria nodorum (1291); V8 medium) was 30%. The mycelium growth (Septoria nodorum (1291); V8 medium, control 5.4 cm) was 1.6 cm, the “EFFICACY W (Abbot)” value (Septoria nodorum (1291); control W=0, no growth W=100) was 70 and the “% mycelium growth relative to the control” value (Fusarium equiseti; V8 medium) was 77%. The mycelium growth (Fusarium equiseti; V8 medium, control 8.6 cm) was 6.6 cm, the “EFFICACY W (Abbot)” value (Fusarium equiseti; control W=0, no growth W=100) was 23 and the “% mycelium growth relative to the control” value (Fusarium oxysporum; V8 medium) was 100%. For the same molecule, the mycelium growth (Fusarium oxysporum; V8 medium, control 8.6 cm) was 8.6 cm, the “EFFICACY W (Abbot)” value (Fusarium oxysporum; control W=0, no growth W=100) was 0 and the “% mycelium growth relative to the control” value (Septoria tritici; V8 medium) was 0%. The mycelium growth (Septoria tritici; V8 medium, control 1.9 cm) was 0 cm, the “EFFICACY W (Abbot)” value (Septoria tritici; control W=0, no growth W=100) was 100 and the “The Thousand Grain Weight (TGW)” value (oilseed rape) was 5.34 g. The Bulk density (oilseed rape) was 0.65 kg/L, the Yield (oilseed rape) was 25.54 dt/ha and the Biomass (oilseed rape) was 112.50 dt/ha. The “% mycelium growth relative to the control” value (Sclerotinia sclerotiorum [4]; V8 medium) was 100%, the mycelium growth (Sclerotinia sclerotiorum [4]; V8 medium, control 8.6 cm) was 8.6 cm and the “EFFICACY W (Abbot)” value (Sclerotinia sclerotiorum [4]; control W=0, no growth W=100) was 0. The “Efficacy Colletotrichum spp.” value (Colletotrichum spp.) was 1.76 scale 0-10, the “% mycelium growth relative to the control” value (Phytium ultimum; V8 medium) was 100% and the mycelium growth (Phytium ultimum; V8 medium, control 8.6 cm) was 8.6 cm. For the same molecule, the “EFFICACY W (Abbot)” value (Phytium ultimum; control W=0, no growth W=100) was 0, the “% mycelium growth relative to the control” value (Phytophthora megasperma; V8 medium) was 70% and the mycelium growth (Phytophthora megasperma; V8 medium, control 5.4 cm (8.6 cm in Table 25)) was 3.8 cm. The “EFFICACY W (Abbot)” value (Phytophthora megasperma; control W=0, no growth W=100) was 30, the “% mycelium growth relative to the control” value (Verticillium longisporum; V8 medium) was 56% and the mycelium growth (Verticillium longisporum; V8 medium, control 3.9 cm) was 2.2 cm. The “EFFICACY W (Abbot)” value (Verticillium longisporum; control W=0, no growth W=100) was 44, the “% mycelium growth relative to the control” value (Phytophthora cactorum; V8 medium) was 33% and the mycelium growth (Phytophthora cactorum; V8 medium, control 5.4 cm) was 1.8 cm. The “EFFICACY W (Abbot)” value (Phytophthora cactorum; control W=0, no growth W=100) was 67, the “% mycelium growth relative to the control” value (Venturia inaegualis; V8 medium) was 0% and the mycelium growth (Venturia inaegualis; V8 medium, control 2.9 cm) was 0 cm. The “EFFICACY W (Abbot)” value (Venturia inaegualis; control W=0, no growth W=100) was 100.

With CCCN(CCOc1c(Cl)cc(Cl)cc1Cl)C(=O)n1ccnc1 [Prochloraz (450)] the “Efficacy Zymoseptoria tritici” value (Zymoseptoria tritici) was 3.37 scale 0-10, the Efficacy % (Erwinia sp.) was 0.00% and the “Erwinia sp. bacterial growth” value (Erwinia sp.) was 3.5 mm. The “Efficacy Peronospora manshurica” value (Peronospora manshurica) was 3.37 scale 0-10, the Bulk density (winter wheat) was 0.65 kg/L and the “The Thousand Grain Weight (TGW)” value (winter wheat) was 46.90 g. For the same molecule, the Yield (winter wheat) was 71.51 dt/ha, the Biomass (winter wheat) was 157.50 dt/ha and the “Efficacy Sclerotinia sclerotiorum” value (Sclerotinia sclerotiorum [3]) was 4.17 scale 0-10. For the same molecule, the “Efficacy Phoma lingam” value (Phoma lingam) was 3.11 scale 0-10, the Bulk density (soya) was 0.743 kg/L and the Yield (soya) was 41.37 dt/ha. For the same molecule, the Biomass (soya) was 176.7 dt/ha, the “The Thousand Grain Weight (TGW)” value (soya) was 211.5 g and the “The Thousand Grain Weight (TGW)” value (oilseed rape) was 5.72 g. For the same molecule, the Bulk density (oilseed rape) was 0.68 kg/L, the Yield (oilseed rape) was 30.06 dt/ha and the Biomass (oilseed rape) was 125.00 dt/ha. For the same molecule, the “Efficacy Colletotrichum spp.” value (Colletotrichum spp.) was 2.79 scale 0-10.

For N#Cc1c[nH]cc1-c1cccc2c1OC(F)(F)O2 [Fludioxonil, fludioxonil], the “effectiveness in reducing the development of pathogens (in words)” value [5] was “completely inhibited fungal growth”.

For OC(c1ccc(F)cc1)(c1cncnc1)c1ccccc1Cl (stereo not drawn) [Nuarimol], the plant emergence (spring barley [6]) is given as “increased emergence”, the “control of common root rot / disease ratings” value (Cochliobolus sativus) is given as “statistically significant in disease reduction” and the grain yield (spring barley [7]) is given as “did not increase grain yield”.

For C=CCOC(Cn1ccnc1)c1ccc(Cl)cc1Cl (stereo not drawn) [imazalil], the plant emergence (spring barley [6]) is listed as “increased emergence”.
